In patent US12692261B2, “Substituted heterocyclic compounds and therapeutic uses thereof” (Bayer Aktiengesellschaft, priority 2020, dated 2026):
Where “and” joins values, the source holds several entries; their conditions need not be identical. Equal entries are not always repeated. Where two headings read alike, the source gives them in different places.

How the values were obtained:
[1] = target: T1, wild-type Epidermal Growth Factor Receptor (EGFR) (Homo sapiens, UniProt P00533); assay: WT-EGFR Kinase Assay (TR-FRET, 2 mM ATP); assay type: biochemical
T1 construct: a fragment of human EGFR (amino acids R669 to A1210); made in house; host or cells: Sf9 insect cells
T1 sequence (P00533 669-1210): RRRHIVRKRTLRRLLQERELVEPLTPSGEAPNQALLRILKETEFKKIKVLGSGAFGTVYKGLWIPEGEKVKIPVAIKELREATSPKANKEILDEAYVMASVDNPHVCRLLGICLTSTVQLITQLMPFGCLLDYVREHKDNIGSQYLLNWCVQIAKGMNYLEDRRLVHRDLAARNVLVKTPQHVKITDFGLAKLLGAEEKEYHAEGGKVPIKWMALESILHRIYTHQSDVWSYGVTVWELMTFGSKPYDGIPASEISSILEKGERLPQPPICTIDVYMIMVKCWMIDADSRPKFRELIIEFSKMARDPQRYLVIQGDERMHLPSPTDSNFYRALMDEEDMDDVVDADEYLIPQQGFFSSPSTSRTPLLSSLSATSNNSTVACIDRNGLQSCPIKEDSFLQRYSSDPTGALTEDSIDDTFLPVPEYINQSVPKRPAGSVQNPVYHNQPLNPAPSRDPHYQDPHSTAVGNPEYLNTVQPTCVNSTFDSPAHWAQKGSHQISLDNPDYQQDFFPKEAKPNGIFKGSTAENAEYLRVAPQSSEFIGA
Summary of the method: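 GST-fused human EGFR fragment (R669-A1210) from Sf9 cells, typically 7.6 pg/μL, pre-incubated with compound 15 min at 22° C in Hepes pH 7.0 buffer with MgCl2, DTT and vanadate; biotinylated peptide substrate. After EDTA stop, phosphopeptide detected by TR-FRET (anti-phosphotyrosine Tb-cryptate/streptavidin-XL665), 665/620 nm emission ratio.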

[2] = target: T2, full-length human CSNK1A1 (Homo sapiens, UniProt P48729); assay: CSNK1A1 High ATP Assay (ADP-Glo, 1 mM ATP); assay type: biochemical; details: Table 3, read-out: CSNK1A1 high ATP assay IC50 [mol/l] (median);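 note: 30 min kinase reaction at 22 °C with 100 µM peptide substrate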
T2 construct: N-terminal Glutathion-S-Transferase (GST) and full-length human CSNK1A1; purchased Life Technologies PV4174; host or cells: baculovirus infected insect cells
T2 sequence (P48729 whole entry): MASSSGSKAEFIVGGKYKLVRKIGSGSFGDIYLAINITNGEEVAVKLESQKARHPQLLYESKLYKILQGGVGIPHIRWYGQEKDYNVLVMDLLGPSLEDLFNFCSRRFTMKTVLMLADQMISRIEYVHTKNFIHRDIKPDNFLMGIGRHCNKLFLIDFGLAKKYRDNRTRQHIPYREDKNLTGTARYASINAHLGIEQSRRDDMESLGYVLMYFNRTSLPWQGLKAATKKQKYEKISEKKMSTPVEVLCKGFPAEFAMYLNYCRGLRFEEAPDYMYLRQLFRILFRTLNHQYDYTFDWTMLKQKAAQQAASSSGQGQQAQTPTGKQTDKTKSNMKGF
Summary of the method: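 Kinase activity taken as ADP generated, quantified by ADP-Glo luminescence after 1 h ATP depletion and 1 h detection at 22 °C. Enzyme is GST–full-length human CSNK1A1 (insect cell-expressed), pre-bound to compound for 15 min, with phosphopeptide substrate and 1 mM ATP.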

[3] = EGFR Wildtyp 2 mM ATP IC50 [mol/l] (median), Table 4
[4] = read-out: EGFR Wildtyp 2 mM ATP IC50 [mol/l] (median), Table 4

O=C(Nc1cc(-c2[nH]c3c(OCC4CC4)ncnc3c2-c2ccccn2)ccn1)C(CC(F)F)c1ccc(F)cc1 (single isomer, unassigned) [Example 130, (2R or S)—N-{4-[4-(cyclopropylmethoxy)-7-(pyridin-2-yl)-5H-pyrrolo[3,2-d]pyrimidin-6-yl]pyridin-2-yl}-4,4-difluoro-2-(4-fluorophenyl)butanamide]
IC50 [1, 3]: 6.67 µM
IC50 [2]: 4.96 µM and > 5.71 µM

O=C(Nc1cc(-c2[nH]c3cccnc3c2-c2ccccn2)ccn1)C(CC(F)F)c1ccc(F)cc1 (single isomer, unassigned; (+)) [Example 11, (+)-4,4-difluoro-2-(4-fluorophenyl)-N-{4-[3-(pyridin-2-yl)-1H-pyrrolo[3,2-b]pyridin-2-yl]pyridin-2-yl}butanamide]
IC50 [1, 3]: > 20 µM
IC50 [2]: 0.00535 µM

O=C(Nc1cc(-c2[nH]c3cncnc3c2-c2ccccn2)ccn1)C(CC(F)F)c1ccc(F)cc1 (single isomer, unassigned; (+)) [Example 15, (+)-4,4-difluoro-2-(4-fluorophenyl)-N-{4-[7-(pyridin-2-yl)-5H-pyrrolo[3,2-d]pyrimidin-6-yl]pyridin-2-yl}butanamide]
IC50 [1, 4]: > 20 µM
IC50 [2]: 0.0309 µM

O=C(Nc1cc(-c2[nH]c3cc(F)cnc3c2-c2ccccn2)ccn1)C(CC(F)F)c1ccc(F)cc1 (single isomer, unassigned; (+)) [Example 17, (+)-4,4-difluoro-2-(4-fluorophenyl)-N-{4-[6-fluoro-3-(pyridin-2-yl)-1H-pyrrolo[3,2-b]pyridin-2-yl]pyridin-2-yl}butanamide]
IC50 [1, 3]: > 20 µM
IC50 [2]: 0.00548 µM

O=C(Nc1cc(-c2[nH]c3cc(F)cnc3c2-c2ccccc2)ccn1)C(CC(F)F)c1ccc(F)cc1 (single isomer, unassigned; (+)) [Example 21, (+)-4,4-difluoro-2-(4-fluorophenyl)-N-[4-(6-fluoro-3-phenyl-1H-pyrrolo[3,2-b]pyridin-2-yl)pyridin-2-yl]butanamide]
IC50 [1, 4]: > 20 µM
IC50 [2]: 0.229 µM

O=C(Nc1cc(-c2[nH]c3cccnc3c2-c2ccccc2)ccn1)C(CC(F)F)c1ccc(F)cc1 (single isomer, unassigned; (+)) [Example 24, (+)-4,4-difluoro-2-(4-fluorophenyl)-N-[4-(3-phenyl-1H-pyrrolo[3,2-b]pyridin-2-yl)pyridin-2-yl]butanamide]
IC50 [1, 4]: > 20 µM
IC50 [2]: 0.0666 µM

O=C(Nc1cc(-c2[nH]c3cccnc3c2-c2cccc(F)n2)ccn1)C(CC(F)F)c1ccc(F)cc1 (single isomer, unassigned; (+)) [Example 27, (+)-4,4-difluoro-2-(4-fluorophenyl)-N-{4-[3-(6-fluoropyridin-2-yl)-1H-pyrrolo[3,2-b]pyridin-2-yl]pyridin-2-yl}butanamide]
IC50 [1, 4]: > 20 µM
IC50 [2]: 0.00155 µM

COc1cc(F)nc2c(-c3ccccn3)c(-c3ccnc(NC(=O)C(CC(F)F)c4ccc(F)cc4)c3)[nH]c12 (single isomer, unassigned; (+)) [Example 40, (+)-4,4-difluoro-N-{4-[5-fluoro-7-methoxy-3-(pyridin-2-yl)-1H-pyrrolo[3,2-b]pyridin-2-yl]pyridin-2-yl}-2-(4-fluorophenyl)butanamide]
IC50 [1, 3]: > 20 µM
IC50 [2]: 0.00369 µM

O=C(Nc1cc(-c2[nH]c3ccc(F)nc3c2-c2ccc(F)cn2)ccn1)C(CC(F)F)c1ccc(F)cc1 (single isomer, unassigned; (+)) [Example 109, (+)-4,4-difluoro-N-{4-[5-fluoro-3-(5-fluoropyridin-2-yl)-1H-pyrrolo[3,2-b]pyridin-2-yl]pyridin-2-yl}-2-(4-fluorophenyl)butanamide]
IC50 [1, 3]: > 20 µM
IC50 [2]: 0.00314 µM

O=C(Nc1cc(-c2[nH]c3cccnc3c2-c2ccccn2)ccn1)C(CC(F)F)c1ccc(F)cc1 (single isomer, unassigned; (-)) [Example 12, (−)-4,4-difluoro-2-(4-fluorophenyl)-N-{4-[3-(pyridin-2-yl)-1H-pyrrolo[3,2-b]pyridin-2-yl]pyridin-2-yl}butanamide]
IC50 [1, 4]: > 20 µM
IC50 [2]: 0.856 µM
